Experimental data from the kinase profiling compilation of Christmann-Franck et al. (2016).

Tests used:
Assay in all cases: KINOMEscan competition binding
Details in all cases: compound 10.0 µM
MAP3K1 (human) = MAP3K1 (human) (UniProt Q13233)
PLK2 (human) = PLK2 (human) (UniProt Q9NYY3)
[1] = system: PIK3CA (human), P42336 [I800L]
PIK3CG (human) = PIK3CG (human) (UniProt P48736)
GRK4 (human) = GRK4 (human) (UniProt P32298)
[2] = system: PIK3CA (human), P42336 [Q546K]
HIPK2 (human) = HIPK2 (human) (UniProt Q9H2X6)
Chain of HIPK2 (human) (Q9H2X6 whole entry, looked up): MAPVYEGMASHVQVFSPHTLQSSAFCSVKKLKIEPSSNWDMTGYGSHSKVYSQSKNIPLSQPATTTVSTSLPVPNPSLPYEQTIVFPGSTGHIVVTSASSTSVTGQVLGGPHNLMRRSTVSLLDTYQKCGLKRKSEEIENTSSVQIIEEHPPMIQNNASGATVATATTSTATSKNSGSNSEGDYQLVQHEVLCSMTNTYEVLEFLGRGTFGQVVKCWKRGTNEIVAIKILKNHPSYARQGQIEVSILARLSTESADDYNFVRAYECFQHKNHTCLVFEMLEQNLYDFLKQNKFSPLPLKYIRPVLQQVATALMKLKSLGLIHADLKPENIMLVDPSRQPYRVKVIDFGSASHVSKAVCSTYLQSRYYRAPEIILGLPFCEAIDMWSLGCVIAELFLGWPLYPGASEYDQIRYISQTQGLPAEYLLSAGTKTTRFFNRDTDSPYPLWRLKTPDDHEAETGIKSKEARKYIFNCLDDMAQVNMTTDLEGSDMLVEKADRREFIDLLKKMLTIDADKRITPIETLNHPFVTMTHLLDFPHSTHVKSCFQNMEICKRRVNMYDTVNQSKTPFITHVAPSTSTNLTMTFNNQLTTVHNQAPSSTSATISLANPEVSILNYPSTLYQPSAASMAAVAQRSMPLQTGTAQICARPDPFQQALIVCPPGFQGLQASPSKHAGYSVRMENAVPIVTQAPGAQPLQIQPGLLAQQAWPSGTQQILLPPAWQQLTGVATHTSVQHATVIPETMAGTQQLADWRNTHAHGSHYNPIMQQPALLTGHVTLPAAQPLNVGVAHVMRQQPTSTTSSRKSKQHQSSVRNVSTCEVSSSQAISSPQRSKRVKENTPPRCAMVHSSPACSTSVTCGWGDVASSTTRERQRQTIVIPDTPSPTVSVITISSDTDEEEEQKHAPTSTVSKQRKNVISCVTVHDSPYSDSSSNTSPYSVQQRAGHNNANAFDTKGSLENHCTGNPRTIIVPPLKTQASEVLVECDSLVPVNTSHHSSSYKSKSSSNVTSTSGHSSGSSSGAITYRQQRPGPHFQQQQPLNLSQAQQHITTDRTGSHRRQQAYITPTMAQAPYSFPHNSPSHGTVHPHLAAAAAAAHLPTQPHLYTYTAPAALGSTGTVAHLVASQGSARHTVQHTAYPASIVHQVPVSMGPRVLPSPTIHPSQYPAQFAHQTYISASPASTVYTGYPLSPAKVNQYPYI

GRK1 (human) = GRK1 (human) (UniProt Q15835)
IRAK4 (human) = IRAK4 (human) (UniProt Q9NWZ3)
[3] = system: EGFR (human), P00533 [746-750 del]
CDK13 (human) = CDK13 (human) (UniProt Q14004)
MAP3K13 (human) = MAP3K13 (human) (UniProt O43283)
Chain of MAP3K13 (human) (O43283 whole entry, looked up): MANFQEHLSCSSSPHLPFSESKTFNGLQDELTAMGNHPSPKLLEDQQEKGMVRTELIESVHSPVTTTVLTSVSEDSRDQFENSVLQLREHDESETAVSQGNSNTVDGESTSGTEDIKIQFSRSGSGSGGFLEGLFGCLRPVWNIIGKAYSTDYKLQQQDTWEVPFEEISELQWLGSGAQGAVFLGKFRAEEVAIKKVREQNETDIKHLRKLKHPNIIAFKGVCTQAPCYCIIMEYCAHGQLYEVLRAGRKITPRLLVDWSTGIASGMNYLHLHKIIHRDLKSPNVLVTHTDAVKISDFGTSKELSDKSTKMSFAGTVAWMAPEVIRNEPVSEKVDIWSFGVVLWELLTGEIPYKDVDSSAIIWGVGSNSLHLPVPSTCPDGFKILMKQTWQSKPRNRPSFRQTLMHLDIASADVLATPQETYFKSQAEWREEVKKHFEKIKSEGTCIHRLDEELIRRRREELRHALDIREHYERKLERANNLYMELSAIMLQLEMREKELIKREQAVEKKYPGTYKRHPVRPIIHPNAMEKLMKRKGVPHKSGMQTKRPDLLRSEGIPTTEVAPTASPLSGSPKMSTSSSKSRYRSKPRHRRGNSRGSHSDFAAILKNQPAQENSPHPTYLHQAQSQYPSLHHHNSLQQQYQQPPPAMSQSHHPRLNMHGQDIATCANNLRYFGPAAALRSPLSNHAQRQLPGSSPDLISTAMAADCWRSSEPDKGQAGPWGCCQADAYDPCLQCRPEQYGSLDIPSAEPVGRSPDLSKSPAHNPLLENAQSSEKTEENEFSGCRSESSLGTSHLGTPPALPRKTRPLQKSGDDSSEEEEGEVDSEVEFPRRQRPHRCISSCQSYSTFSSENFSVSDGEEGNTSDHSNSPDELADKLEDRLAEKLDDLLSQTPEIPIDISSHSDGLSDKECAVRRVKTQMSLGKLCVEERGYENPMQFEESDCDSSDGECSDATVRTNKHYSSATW

MAP3K15 (human) = MAP3K15 (human) (UniProt Q6ZN16)
CRK2 (P.falciparum) = CRK2 (P.falciparum) (UniProt P61075)
Chain of CRK2 (P.falciparum) (P61075 whole entry, looked up): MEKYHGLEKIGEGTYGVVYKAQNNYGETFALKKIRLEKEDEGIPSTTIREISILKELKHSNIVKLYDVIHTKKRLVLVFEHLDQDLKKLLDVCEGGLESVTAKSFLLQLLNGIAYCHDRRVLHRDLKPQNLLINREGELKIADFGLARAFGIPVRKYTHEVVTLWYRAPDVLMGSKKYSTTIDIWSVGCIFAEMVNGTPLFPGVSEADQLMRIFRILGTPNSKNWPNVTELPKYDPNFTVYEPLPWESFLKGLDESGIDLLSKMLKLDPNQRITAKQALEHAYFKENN

CDK2 (human) = CDK2 (human) (UniProt P24941)
[4] = system: KIT (human), P10721 [V559D/T670I]
PRKCI (human) = PRKCI (human) (UniProt P41743)
PIK3C2G (human) = PIK3C2G (human) (UniProt O75747)
Chain of PIK3C2G (human) (O75747 whole entry, looked up): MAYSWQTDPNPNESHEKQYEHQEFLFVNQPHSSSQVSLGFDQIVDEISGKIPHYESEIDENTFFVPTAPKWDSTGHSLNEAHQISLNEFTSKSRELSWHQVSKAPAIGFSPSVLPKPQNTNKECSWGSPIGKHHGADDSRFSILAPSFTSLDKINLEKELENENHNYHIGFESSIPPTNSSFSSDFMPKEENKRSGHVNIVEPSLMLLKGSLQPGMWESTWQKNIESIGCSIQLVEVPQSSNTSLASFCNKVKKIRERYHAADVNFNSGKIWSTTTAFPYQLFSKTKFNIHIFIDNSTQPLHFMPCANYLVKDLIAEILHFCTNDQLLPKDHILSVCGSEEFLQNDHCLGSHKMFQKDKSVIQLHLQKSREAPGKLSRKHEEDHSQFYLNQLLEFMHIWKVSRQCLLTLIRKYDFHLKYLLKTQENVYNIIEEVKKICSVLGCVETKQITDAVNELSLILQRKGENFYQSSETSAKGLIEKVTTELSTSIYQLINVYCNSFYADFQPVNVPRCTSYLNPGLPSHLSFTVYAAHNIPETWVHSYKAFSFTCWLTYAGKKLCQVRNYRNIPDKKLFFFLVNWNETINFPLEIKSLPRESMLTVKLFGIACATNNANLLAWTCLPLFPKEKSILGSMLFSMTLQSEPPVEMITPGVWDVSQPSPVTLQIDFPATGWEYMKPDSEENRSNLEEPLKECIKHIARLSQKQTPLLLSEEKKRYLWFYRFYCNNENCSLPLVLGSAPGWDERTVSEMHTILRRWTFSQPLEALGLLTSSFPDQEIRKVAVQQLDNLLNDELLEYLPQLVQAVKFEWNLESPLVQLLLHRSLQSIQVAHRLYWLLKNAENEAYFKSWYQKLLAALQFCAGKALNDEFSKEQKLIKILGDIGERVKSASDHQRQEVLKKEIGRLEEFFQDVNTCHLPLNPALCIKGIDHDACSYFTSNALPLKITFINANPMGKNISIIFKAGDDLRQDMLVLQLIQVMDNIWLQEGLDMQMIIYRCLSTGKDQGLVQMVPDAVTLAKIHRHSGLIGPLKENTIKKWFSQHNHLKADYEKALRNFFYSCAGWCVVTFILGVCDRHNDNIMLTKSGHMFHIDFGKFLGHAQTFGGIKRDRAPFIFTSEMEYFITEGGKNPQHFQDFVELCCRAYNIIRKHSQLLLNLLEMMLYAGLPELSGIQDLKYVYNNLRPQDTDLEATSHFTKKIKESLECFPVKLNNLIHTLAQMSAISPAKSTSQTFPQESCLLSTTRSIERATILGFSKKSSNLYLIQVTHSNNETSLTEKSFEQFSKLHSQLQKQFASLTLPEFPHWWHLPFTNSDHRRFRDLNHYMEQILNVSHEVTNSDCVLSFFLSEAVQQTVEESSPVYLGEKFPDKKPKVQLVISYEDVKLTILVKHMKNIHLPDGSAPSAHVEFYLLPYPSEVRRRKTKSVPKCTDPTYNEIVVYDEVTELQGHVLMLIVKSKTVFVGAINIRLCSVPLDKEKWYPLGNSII

EGFR (human) = EGFR (human) (UniProt P00533)
DYRK1A (human) = DYRK1A (human) (UniProt Q13627)
MET (human) = MET (human) (UniProt P08581)
TAOK2 (human) = TAOK2 (human) (UniProt Q9UL54)
[5] = system: EGFR (human), P00533 [G719S]
SIK3 (human) = SIK3 (human) (UniProt Q9Y2K2)
KIT (human) = KIT (human) (UniProt P10721)
SGK3 (human) = SGK3 (human) (UniProt Q96BR1)
NIM1 (human) = NIM1 (human) (UniProt Q8IY84)
[6] = system: EGFR (human), P00533 [L861Q]
[7] = system: PIK3CA (human), P42336 [C420R]
VRK2 (human) = VRK2 (human) (UniProt Q86Y07)
[8] = system: EGFR (human), P00533 [P753S; 747-752 del]
BRAF (human) = BRAF (human) (UniProt P15056)
MAP3K2 (human) = MAP3K2 (human) (UniProt Q9Y2U5)
[9] = system: ABL1 (human), P00519 [E255K]
Chain of ABL1 (human), P00519 [E255K] (P00519 whole entry E255K, looked up): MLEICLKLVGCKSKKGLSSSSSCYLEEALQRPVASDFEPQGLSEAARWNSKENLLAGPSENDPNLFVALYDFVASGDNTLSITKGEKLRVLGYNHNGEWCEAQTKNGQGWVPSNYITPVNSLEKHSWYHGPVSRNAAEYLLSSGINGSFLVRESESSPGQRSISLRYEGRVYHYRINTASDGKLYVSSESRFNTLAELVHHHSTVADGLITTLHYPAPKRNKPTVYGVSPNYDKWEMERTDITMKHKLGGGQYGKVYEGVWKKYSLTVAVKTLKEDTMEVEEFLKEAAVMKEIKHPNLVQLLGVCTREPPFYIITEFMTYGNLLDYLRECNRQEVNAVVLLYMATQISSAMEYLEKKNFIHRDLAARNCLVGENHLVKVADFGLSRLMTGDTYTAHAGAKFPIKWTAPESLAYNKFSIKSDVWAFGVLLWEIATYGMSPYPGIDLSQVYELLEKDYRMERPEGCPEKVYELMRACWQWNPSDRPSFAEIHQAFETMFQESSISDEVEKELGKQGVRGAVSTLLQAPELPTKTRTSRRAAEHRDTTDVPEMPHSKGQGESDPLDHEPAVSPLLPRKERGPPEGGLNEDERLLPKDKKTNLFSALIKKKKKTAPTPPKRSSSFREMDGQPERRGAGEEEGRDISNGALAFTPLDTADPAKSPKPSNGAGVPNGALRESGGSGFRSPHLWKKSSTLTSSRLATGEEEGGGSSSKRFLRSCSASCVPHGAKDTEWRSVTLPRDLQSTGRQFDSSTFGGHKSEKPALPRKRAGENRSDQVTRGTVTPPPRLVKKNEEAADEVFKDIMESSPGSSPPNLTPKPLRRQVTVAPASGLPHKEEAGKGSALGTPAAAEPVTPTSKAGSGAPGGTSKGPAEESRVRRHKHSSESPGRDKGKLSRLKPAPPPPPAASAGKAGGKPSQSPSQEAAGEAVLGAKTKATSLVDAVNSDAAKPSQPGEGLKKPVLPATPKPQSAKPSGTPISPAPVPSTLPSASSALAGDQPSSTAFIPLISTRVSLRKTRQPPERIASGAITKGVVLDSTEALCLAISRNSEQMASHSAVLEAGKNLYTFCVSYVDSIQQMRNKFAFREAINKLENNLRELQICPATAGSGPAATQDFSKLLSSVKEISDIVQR

MYLK3 (human) = MYLK3 (human) (UniProt Q32MK0)
STK39 (human) = STK39 (human) (UniProt Q9UEW8)
[10] = system: PIK3CA (human), P42336 [H1047Y]
YSK4 (human) = YSK4 (human) (UniProt Q56UN5)

| Structure (SMILES) | kinase still bound, per cent of control (MAP3K1 (human)) [%] | kinase still bound, per cent of control (PLK2 (human)) [%] | kinase still bound, per cent of control (PIK3CG (human)) [%] | kinase still bound, per cent of control (GRK4 (human)) [%] | kinase still bound, per cent of control [2] [%] | kinase still bound, per cent of control (HIPK2 (human)) [%] | kinase still bound, per cent of control (GRK1 (human)) [%] | kinase still bound, per cent of control [3] [%] | kinase still bound, per cent of control (MAP3K13 (human)) [%] | kinase still bound, per cent of control (MAP3K15 (human)) [%] | kinase still bound, per cent of control (CDK2 (human)) [%] | kinase still bound, per cent of control [4] [%] | kinase still bound, per cent of control (PIK3C2G (human)) [%] | kinase still bound, per cent of control (EGFR (human)) [%] | kinase still bound, per cent of control (DYRK1A (human)) [%] | kinase still bound, per cent of control (MET (human)) [%] | kinase still bound, per cent of control [5] [%] | kinase still bound, per cent of control (SIK3 (human)) [%] | kinase still bound, per cent of control (KIT (human)) [%] | kinase still bound, per cent of control (NIM1 (human)) [%] | also measured |
| --- | --- | --- | --- | --- | --- | --- | --- | --- | --- | --- | --- | --- | --- | --- | --- | --- | --- | --- | --- | --- | --- |
| COc1cc(N2CCN(C)CC2)ccc1Nc1nc(N)c(C(=O)c2c(Cl)cccc2Cl)s1 | 100 | 91 | 86 | 85 | 78 | 66 | 100 | 85 | 100 | 51 | 79 | 100 | 100 | 100 | 72 | 100 | 88 | 76 | 100 | 80 | kinase still bound, per cent of control [1]: 96%; kinase still bound, per cent of control (IRAK4 (human)): 96%; kinase still bound, per cent of control (CDK13 (human)): 83%; kinase still bound, per cent of control (CRK2 (P.falciparum)): 87%; kinase still bound, per cent of control (PRKCI (human)): 93%; kinase still bound, per cent of control (TAOK2 (human)): 8.2%; kinase still bound, per cent of control (SGK3 (human)): 100%; kinase still bound, per cent of control [6]: 100%; kinase still bound, per cent of control [7]: 100%; kinase still bound, per cent of control (VRK2 (human)): 100%; kinase still bound, per cent of control [8]: 89%; kinase still bound, per cent of control (BRAF (human)): 94%; kinase still bound, per cent of control (MAP3K2 (human)): 79%; kinase still bound, per cent of control [9]: 90%; kinase still bound, per cent of control (MYLK3 (human)): 100%; kinase still bound, per cent of control (STK39 (human)): 66%; kinase still bound, per cent of control [10]: 100%; kinase still bound, per cent of control (YSK4 (human)): 98% |
| OCCCNc1cc(-c2ccnc(Nc3cccc(Cl)c3)n2)ccn1 | 100 | 100 | 100 | 100 | 100 | 15 | 100 | 100 | 100 | 100 | 100 | 100 | 100 | 100 | 7.8 | 100 | 100 | 100 | 100 | 100 | kinase still bound, per cent of control [6]: 100%; kinase still bound, per cent of control [7]: 100%; kinase still bound, per cent of control [8]: 100%; kinase still bound, per cent of control (BRAF (human)): 100%; kinase still bound, per cent of control (MAP3K2 (human)): 100%; kinase still bound, per cent of control [9]: 100%; kinase still bound, per cent of control (MYLK3 (human)): 100%; kinase still bound, per cent of control (STK39 (human)): 100%; kinase still bound, per cent of control [10]: 100%; kinase still bound, per cent of control (YSK4 (human)): 100% |
